{"source": "patent US6723710B2", "about": "“Compositions for inhibiting arginase activity” (The Trustees of the University of Pennsylvania, priority 1997, dated 2004)", "key": {"[1]": {"system": "internal anal sphincter (IAS) smooth muscle", "test": "NANC nerve-mediated relaxation of IAS smooth muscle strips by electrical field stimulation", "set-up": "species or system opossum (Didelphis virginiana)", "settings": "L-NNA 3×10^−6 molar"}, "[2]": {"system": "arginase activities of the various tissues", "test": "arginase activity in tissue homogenates (liver, IAS, rectum, brain) with NO synthase inhibitor", "format": "biochemical, opossum", "settings": "80 micromolar; basal and in the presence of L-HO-Arg", "method": "Tissue samples of the opossum internal anal sphincter muscle (IAS), adjoining rectal tissue, liver, and brain were homogenized using an ULTRATURRAX™ tissue homogenizer (Tekamr, Cincinnati, Ohio) in a solution comprising 10 millimolar Tris-HCl, 150 millimolar KCl, and 25 millimolar MnCl2, at pH 7.4. The homogenates were dialyzed overnight against the same solution. […]\nArginase activity in tissue homogenates was evaluated using the radioactive L-[guanidino^14C]arginine assay of Rüegg and Russell (1980, Anal. Biochem. 102:206-212). […] Urea was separated from non-reacted L-[guanidino-^14C]arginine by treatment with 200 μl of 1:1 v/v slurry of DOWEX™ 50W-X8 in water, and quantitated by adding 200 microliters of the supernatant from the DOWEX™ treatment to 3 milliliters of LIQUISCENT™ (National Diagnostics) for liquid scintillation counting in a Beckman LS 5000CE counter. The data were analyzed using double-reciprocal plots of the initial velocity measurements; standard errors were determined by regression analysis.\nThus, it is possible that tissue variations in inhibition of arginase activities by L-HO-Arg could be due to depletion of added L-HO-Arg by conversion to NO. In order to test this possibility, the effects of L-HO-Arg on arginase activities in the tissue homogenates were determined in the presence of the NO synthase inhibitor L-NNA."}, "[3]": {"substrate": "N=C(N)Nc1cccc([N+](=O)[O-])c1", "test": "continuous chromogenic arginase assay with substrate 1-nitro-3-guanidinobenzene (compound 18)", "format": "biochemical, rat", "settings": "other: as substrate, bicine pH 9.0", "method": "The activity of wild-type arginase was monitored spectrophotometrically using a Pharmacia BIOTECH ULTROSPEC™ 2000. Assays were performed in a solution comprising 100 micromolar MnCl2 and 50 millimolar bicine-NaOH (pH 9.0). […] Eadie-Hofstee plots were used to analyze the data."}}}
{"molecule": "N=C(NCCC[C@H](N)C(=O)O)N[N+](=O)[O-]", "note": "[L-NNA, N^ω-nitro-L-arginine]", "values": [{"measurement": "IAS relaxation in the presence of L-NNA", "setting": "[1]; 0.5 Hertz EFS", "result": "0±0", "unit": "%"}, {"measurement": "IAS relaxation in the presence of L-NNA", "setting": "[1]; 1 Hertz EFS", "result": "0.6±0.6", "unit": "%"}, {"measurement": "IAS relaxation in the presence of L-NNA", "setting": "[1]; 2 Hertz EFS", "result": "1.8±1.1", "unit": "%"}, {"measurement": "IAS relaxation in the presence of L-NNA", "setting": "[1]; 5 Hertz EFS", "result": "5.4±2.1", "unit": "%"}, {"measurement": "effect of L-NNA on arginase activities", "setting": "[2]", "result": "no significant effect"}]}
{"molecule": "Recombinant rat liver arginase (Rattus norvegicus) (protein, made in house) MSSKPKPIEIIGAPFSKGQPRGGVEKGPAALRKAGLVEKLKETEYNVRDHGDLAFVDVPNDSPFQIVKNPRSVGKANEQLAAVVAETQKNGTISVVLGGDHSMAIGSISGHARVHPDLCVIWVDAHTDINTPLTTSSGNLHGQPVAFLLKELKGKFPDVPGFSWVTPCISAKDIVYIGLRDVDPGEHYIIKTLGIKYFSMTEVDKLGIGKVMEETFSYLLGRKKRPIHLSFDVDGLDPVFTPATGTPVVGGLSYREGLYITEEIYKTGLLSGLDIMEVNPTLGKTPEEVTRTVNTAVALTLSCFGTKREGNHKPETDYLKPPK", "values": [{"measurement": "Km", "setting": "[3]", "result": "1.6±0.2", "unit": "millimolar"}]}
